Tests used:
Homo sapiens [1] = species on record: Homo sapiens; assay: Binding affinity to human beta amyloid protein 1-40 from Alzheimers disease patient
Homo sapiens [2] = species on record: Homo sapiens; assay: Binding affinity to human beta amyloid protein 1-28 from Alzheimers disease patient

- Kb (Homo sapiens [1]): 0.5 10^6/M
- Kb (Homo sapiens [2]): 1.85 10^6/M
SMILES: Cc1ccc2c(c1)sc(-c1ccc(N(C)C)cc1)[n+]2C
